{"source": "patent US20250236589A1", "about": "“THERAPEUTIC PHENETHYLAMINE COMPOSITIONS AND METHODS OF USE” (Cybin IRL Limited, priority 2022, published 2025)", "key": {"[1]": {"test_system": "5-HT7 (h) (subtype “a” or “b” not specified)", "assay": "Off-target screen, radioligand displacement at 10 μM", "type": "binding, human", "details": "agonist radioligand"}, "mice": {"test_system": "mice", "assay": "Head-twitch response (HTR) screening in mice", "type": "in vivo, mouse", "experimental": "Protocols were followed according to Canal C E, Morgan D. Head-twitch response in rodents induced by the hallucinogen 2,5-dimethoxy-4-iodoamphetamine: a comprehensive history, a re-evaluation of mechanisms, and its utility as a model. […] Mice were housed in standard laboratory cages with ad libitum access to food and water and were acclimated to the vivarium for at least one week prior to testing in a procedure room. In a typical experiment, mice were injected 3 mg/kg of test article subcutaneously. Mice were placed immediately thereafter in a clear, polycarbonate box (46×20×20 cm), and HTRs were counted at various time points after administration using hand-held tally counters. In a separate experiment, plasma and brain samples were collected at 15 and 160 minutes after administration of test compounds to measure plasma and brain concentrations. Quantification was performed using LC-MS/MS method (LLOQ, 9 nM)."}, "[2]": {"test_system": "Adrenergic α2 (subtype not identified) (rat cortex)", "assay": "Off-target screen, radioligand displacement at 10 μM", "type": "binding", "details": "antagonist radioligand"}, "[3]": {"assay": "PK profile in Wistar rats (plasma, brain, urine)", "type": "in vivo, rat", "experimental": "PK profile in Rats. To evaluate the full PK profile for I-1 in rats, plasma and brain pharmacokinetic and urinary excretion of I-1 in male Wistar rats after IV dose at 1 mg/kg and an oral (p.o.) dose at 5 mg/kg administration were determined. Plasma, brain, and urine samples were collected at specified time points after single dose administration of I-1 and quantification of I-1 in the samples was accomplished using LC-MS/MS. The pharmacokinetic parameters were determined as described above."}, "C57BL/6J mice [4]": {"test_system": "C57BL/6J mice", "assay": "HTR time course after s.c. administration in C57BL/6J mice", "type": "in vivo, mouse", "experimental": "5-HT2 agonist activity and relative duration of action in vivo of test compounds were assessed using the HTR assay in male, adult C57BL/6J mice (Jackson Laboratories). Mice were housed in standard laboratory cages with ad libitum access to food and water, and were acclimated to the vivarium for at least one week prior to testing in a procedure room. On the day of testing, mice were acclimated to the procedure room in their home cages for ≥60 min before administration of test compounds. Mice were injected subcutaneously, placed immediately thereafter in a clear, polycarbonate box (46×20×20 cm), and HTRs were counted at 5, 10, 15, 40, 120, 160, 200, 240, 280, 320, 360, and 1440 min, using hand-held tally counters, by two trained observers who were blind to treatment."}, "5-HT2A receptor": {"target": "5-HT2A receptor (Homo sapiens (Human), UniProt P28223)", "assay": "5-HT2A radioligand competition binding ([3H]LSD or [3H]ketanserin)"}, "C57BL/6J mice [5]": {"test_system": "C57BL/6J mice", "assay": "HTR after oral or s.c. administration in C57BL/6J mice", "type": "in vivo, mouse", "experimental": "In another experiment, C57BL/6J mice were moved to the behavior room 30 min prior to administration of the test compound. Test compound was administered either s.c. or p.o. at 1 to 10 mg/kg immediately prior to testing and HTR activity was assessed from 1-30 min and again from 120-150 by blind experienced testers in real-time."}, "[6]": {"assay": "In vitro liver microsome stability (MsLM)", "type": "in vitro ADME", "details": "mouse, mouse liver microsomes, 0.5 mg/mL microsomes, NADPH, read-out: MsLM, t1/2", "experimental": "In vitro stability was determined in Human (HLM), Rat (RLM), Mouse (MsLM), and dog (DLM) Liver Microsomes. All liver microsomes were purchased from a commercial supplier (e.g. XenoTech). The reaction mixture, minus NADPH, was prepared as described below. The test compound was added into the reaction mixture at a final concentration of 1 μM or co-dosed with their deuterated analog(s) at 1 μM each. The control compound, testosterone, was run simultaneously with the test compound in a separate reaction. The reaction mixture (without cofactor) was equilibrated in a shaking water bath at 37° C. for 5 minutes. The reaction was initiated by the addition of the cofactor, and the mixture was incubated in a shaking water bath at 37° C. Aliquots (150 μL) were withdrawn at 0, 5, 10, 20, 30, 60, and 120 minutes. Test compound and testosterone samples were immediately combined with 150 μL of ice-cold acetonitrile (ACN) containing 0.1% formic acid and internal standard to terminate the reaction. The samples were then mixed and centrifuged to precipitate proteins. All samples were assayed by LC-MS/MS using electrospray ionization. […] Half-lives were calculated using GraphPad software, fitting to a single-phase exponential decay equation."}, "[7]": {"details": "male, Wistar, rat, po, brain, p.o. 5 mg/kg"}, "[8]": {"details": "male, Wistar, rat, po, plasma, p.o. 5 mg/kg"}, "[9]": {"details": "male, Wistar, rat, brain, IV 1 mg/kg"}, "[10]": {"details": "male, Wistar, rat, plasma, IV 1 mg/kg"}}, "note": "“Also recorded” adds a separate entry of the source. Read-outs that look alike come from different tables or passages of the source. Marks after values point to notes of the source that are not given here.", "data": [{"compound": "COc1cc(CC(C)N)c(OC)cc1I", "note": "(racemic) [DOI, (±)-2,5-dimethoxy-4-iodoamphetamine, reference compound]", "values": [{"measurement": "inhibition at 10 µM", "setting": "[1]", "value": 58.4, "unit": "% inhibition at 10 μM"}]}, {"compound": "COc1cc(SC(F)(F)F)c(OC)cc1CCN", "note": "[Compound I-1, 2-(2,5-dimethoxy-4-((trifluoromethyl)thio)phenyl)ethan-1-amine]", "values": [{"measurement": "HTR 15-25 min", "setting": "mice; calculated using 0-5 min", "value": "27.4 #"}, {"measurement": "HTR 160-170 min", "setting": "mice; calculated using 3 min time bin", "value": "30.4 ###"}, {"measurement": "inhibition at 10 µM", "setting": "[2]", "value": 97.3, "unit": "%"}, {"measurement": "mean total amount recovered in urine", "setting": "[3]; IV 1 mg/kg, n=2", "value": 718, "unit": "ng"}, {"measurement": "% F (AUCINF)", "setting": "[3]; absolute oral bioavailability, p.o. 5 mg/kg", "value": 19.1, "unit": "%"}, {"measurement": "Cmax, brain concentration", "setting": "[3]; brain, IV 1 mg/kg", "value": 890, "unit": "ng/g"}, {"measurement": "T1/2", "setting": "[3]; brain, IV 1 mg/kg", "value": 2.44, "unit": "h"}, {"measurement": "Cmax, brain concentration", "setting": "[3]; brain, p.o. 5 mg/kg", "value": 402, "unit": "ng/g"}, {"measurement": "T1/2", "setting": "[3]; brain, p.o. 5 mg/kg", "value": 4.71, "unit": "h"}, {"measurement": "total systemic clearance relative to total hepatic blood flow", "setting": "[3]; hepatic blood flow 3.3 L/hr/kg", "value": "approximately 6 fold"}, {"measurement": "head twitching observed", "setting": "[3]; immediately after IV 1 mg/kg, 1.5 hr after oral 5 mg/kg", "value": "mild to moderate-grade head twitching"}, {"measurement": "Tmax", "setting": "[3]; male, Wistar, rat, brain, iv, 1 mg/kg, IV 1 mg/kg", "value": 0.5, "unit": "h"}, {"measurement": "Tmax", "setting": "[3]; male, Wistar, rat, brain, po, 5 mg/kg, p.o. 5 mg/kg", "value": 2, "unit": "h"}, {"measurement": "Tmax", "setting": "[3]; male, Wistar, rat, plasma, iv, 1 mg/kg, IV 1 mg/kg", "value": 0.083, "unit": "h"}, {"measurement": "AUC(0-inf)", "setting": "[3]; [7]", "value": 2880, "unit": "ng·h/mL"}, {"measurement": "AUC(0-t)", "setting": "[3]; [7]", "value": 1860, "unit": "ng·h/mL"}, {"measurement": "Cmax", "setting": "[3]; [7]", "value": 402, "unit": "ng/mL"}, {"measurement": "MRT last", "setting": "[3]; [7]", "value": 3.3, "unit": "h"}, {"measurement": "half-life", "setting": "[3]; [7]", "value": 4.71, "unit": "h"}, {"measurement": "AUC(0-inf)", "setting": "[3]; [8]", "value": 49.7, "unit": "ng·h/mL"}, {"measurement": "AUC(0-t)", "setting": "[3]; [8]", "value": 40.3, "unit": "ng·h/mL"}, {"measurement": "Cmax", "setting": "[3]; [8]", "value": 18.6, "unit": "ng/mL"}, {"measurement": "MRT last", "setting": "[3]; [8]", "value": 2.25, "unit": "h"}, {"measurement": "half-life", "setting": "[3]; [8]", "value": 3.53, "unit": "h"}, {"measurement": "CL renal", "setting": "[3]; male, Wistar, rat, urine, IV 1 mg/kg, read-out: Renal clearance (converted)", "value": 1.14, "unit": "mL/min/kg"}, {"measurement": "dose excreted", "setting": "[3]; male, Wistar, rat, urine, IV 1 mg/kg, read-out: percentage recovery in urine", "value": 0.07, "unit": "%"}, {"measurement": "AUC(0-inf)", "setting": "[3]; [9]", "value": 3260, "unit": "ng·h/mL"}, {"measurement": "AUC(0-t)", "setting": "[3]; [9]", "value": 2910, "unit": "ng·h/mL"}, {"measurement": "Cmax", "setting": "[3]; [9]", "value": 890, "unit": "ng/mL"}, {"measurement": "MRT last", "setting": "[3]; [9]", "value": 2.54, "unit": "h"}, {"measurement": "half-life", "setting": "[3]; [9]", "value": 2.44, "unit": "h"}, {"measurement": "AUC(0-inf)", "setting": "[3]; [10]", "value": 50.7, "unit": "ng·h/mL"}, {"measurement": "AUC(0-t)", "setting": "[3]; [10]", "value": 42.2, "unit": "ng·h/mL"}, {"measurement": "Cmax", "setting": "[3]; [10]", "value": 54.1, "unit": "ng/mL"}, {"measurement": "MRT last", "setting": "[3]; [10]", "value": 0.62, "unit": "h"}, {"measurement": "clearance", "setting": "[3]; [10]", "value": 328, "unit": "mL/min/kg"}, {"measurement": "half-life", "setting": "[3]; [10]", "value": 0.78, "unit": "h"}, {"measurement": "C0", "setting": "[3]; male, Wistar, rat, plasma, IV 1 mg/kg, extrapolated", "value": 67.2, "unit": "ng/mL"}, {"measurement": "Vd", "setting": "[3]; male, Wistar, rat, plasma, IV 1 mg/kg, read-out: Vz", "value": 22.2, "unit": "L/kg"}, {"measurement": "Cl", "setting": "[3]; plasma, IV 1 mg/kg", "value": 328, "unit": "mL/min/kg"}, {"measurement": "T1/2", "setting": "[3]; plasma, IV 1 mg/kg", "value": 0.78, "unit": "h"}, {"measurement": "T1/2", "setting": "[3]; plasma, p.o. 5 mg/kg", "value": 3.53, "unit": "h"}, {"measurement": "volume of distribution relative to total body water", "setting": "[3]; total body water 0.7 L/kg", "value": "approximately 32 fold"}, {"measurement": "HTR, dose-response", "setting": "C57BL/6J mice [4]; 0.1, 0.3, 1, 3 mg/kg s.c.", "value": "robust dose-dependent HTR"}, {"measurement": "HTR duration versus DOI", "setting": "C57BL/6J mice [4]; DOI 1 mg/kg s.c.", "value": "persisted longer"}, {"measurement": "Ki", "setting": "5-HT2A receptor", "value": 54, "unit": "nM"}, {"measurement": "affinity at 5-HT2A receptors (in words)", "setting": "5-HT2A receptor", "value": "superior affinity"}, {"measurement": "Ki", "setting": "5-HT2A receptor; read-out: 5-HT2A, Ki, [3H]ketanserin, high-affinity active state", "value": 2.5, "unit": "nM"}, {"measurement": "HTR after oral administration", "setting": "C57BL/6J mice [5]; 1, 3, 10 mg/kg p.o.", "value": "elicited the HTR; also recorded: dose-dependent increase in HTRs"}, {"measurement": "HTR duration versus DOI, oral", "setting": "C57BL/6J mice [5]; p.o.", "value": "greater duration than DOI"}, {"measurement": "half-life at 1 μM", "setting": "[6]", "value": "> 2", "unit": "h"}]}]}
